Results on 14 compounds are retold here after patent publication US10039771B2, “Method for cancer cell reprogramming” (STC.UNM, priority 2013, dated 2018).

Assay [1] concerns U937 cells. Nature of the assay: Annexin V-PE/7-AAD apoptosis assay. The format is cell-based. The note with it: Homo sapiens. The source says: To detect apoptosis we used an Annexin V and 7-amino-actinomycin D (7-AAD) based assay. Annexin V is a protein that has high binding affinity to phosphatidylserine, which is translocated from the inner to the outer leaflet of the membrane during early apoptosis. 7-AAD is a DNA dye that stains cells only when the cell membranes are permeable. Thus, double positive events are considered to represent end stage apoptosis and dead cells. […] The results obtained using this assay correlated well with the results of other assays:
Six-well plates were set up with dose responses for each of the 11 hit compounds (artemisinin, artemether, artesunate, dihydroartemisinin, parthenolide, patulin, clioquinol, cryptotanshinone, pyrithione zinc, harmalol, quinalizarin). Each well contained 2.5×10^6 U937 cells in 5 mL cRPMI. To each well, 15 μL of compound in DMSO (or vehicle control) was fTadded, giving final concentrations of 0, 300 nM, and 1, 3, 10, and 30 […] were incubated overnight, at 37° C., 5% CO2/95% air. The compound effects on apoptosis were assessed with an Annexin V-PE/7-amino-actinomycin D (7-AAD) kit (BD Pharmingen™ cat. no. 559763), according to manufacturer protocol, and data were collected with a BD Accuri™ C6 flow cytometer. A gate was set for live cells, and 10,000 gated events were collected per sample. FL-2 versus FL-3 channel dot plots were divided into quadrants and were used to determine percentages of gated cells that were Annexin V^−/7-AAD^− (live, healthy cells), Annexin V^+/7-AAD^− (early apoptosis), or Annexin V^+/7-AAD^+ (late, full apoptosis).
[…] The samples were plotted as Annexin V vs 7-AAD and quadrant-gated. Annexin V^+, 7-AAD^− events are indicative of early apoptosis, in which phosphatidyl serine has flipped to the outer leaflet of the cell membrane. Annexin V^+, 7-AAD^+ (double positive) events indicate cell and nuclear membrane permeabilization, marking late apoptotic events or complete cell death.

Assay [2] has as its system U937 cells. Nature of the assay: Propidium iodide cell cycle assay. The note with it: 24 hour incubation, dose response.
The subject of assay [3] is healthy human peripheral blood mononuclear cells (PBMCs). Kind of assay: Cell TiterGlo luminescent cell viability assay in PBMCs.
Assay [4] deals with U937 cells. Nature of the assay: F-cAMP (Alexa 488-cAMP) efflux assay / high throughput flow cytometry screen. The format is cell-based, human. To be noted: for Hit status in preliminary screen for cAMP efflux inhibitors: Prestwick/SPECTRUM library screen, U937 cells. As for the experimental part: U937 cell were loaded with the analog by a method relying on osmotic lysis of pinocytic vesicles (15). After incubation, cell fluorescence decreased to a level that was close to cell autofluorescence.
Briefly, cells were concentrated and washed, with resuspension NF-RPMI (cRPMI without FBS). Cells were then resuspended in an NF-RPMI hypertonic solution containing poly(ethylene glycol) 1,000 (PEG), sucrose, and Alexa Fluor® 488 8-(6-aminohexyl) aminoadenosine 3′,5′-cyclicmonophosphate, bis(triethylammonium) salt, hereafter referred to as F-cAMP, to give a final concentration of 4.76 mM F-cAMP. Cells were incubated for 10 min, room temperature, then centrifuged and resuspended in hypotonic solution (60% cRPMI, 40% sterile water) for 2 min at room temperature to complete the F-cAMP loading. The cells were then washed and resuspended in cRPMI at a final concentration of 4×10^5 cells/mL, and allowed to equilibrate for 2 hours in a 37° C., 5% CO2/95% air incubator.
The remainder of the cells was incubated (37° C., 5% CO2/95% air) in the presence of dimethyl sulfoxide (DMSO) vehicle or compounds overnight. Flow cytometry was used to measure samples, and unstained U937 cells were used to create a gate to mark viable cells. Control and experimental samples were excited with a 488 nm laser and analyzed for FL-1 median fluorescence intensity (MFI) within that gate.
For the high throughput screening assay (HTS), U937 cells were loaded with F-cAMP as described above. Solutions were added to 384-well plates (Greiner 784201) with a Biomek FX Multichannel system (Beckman-Coulter) and/or MicroFlo as follows: 1) 5 μL cRPMI; 2) 100 nL compounds from the Prestwick Chemical Library or Spectrum 2000 Library in DMSO were delivered by pintool (V&P Scientific, San Diego, Calif.), final DMSO concentration=1%; 3) 5 μL F-cAMP cells. Negative control wells contained stained cells with 1% DMSO only. For positive controls, F-cAMP cells were treated with 200 μM MK-571. The final concentration for all conditions was 2000 cells/well. The plates were sealed with foil, and incubated (37° C., 5% CO2/95% air) inverted overnight.
After incubation, the 384-well sample plates were analyzed by CyAn flow cytometers (Beckman-Coulter) configured with HyperCyt high throughput auto-sampler systems (IntelliCyt Albuquerque, N. Mex.). The samples were interrogated with 488 nm lasers to assess FL-1 MCI levels.
Data from the HTS were analyzed with HyperView software (IntelliCyt, Albuquerque, N. Mex.) and gated on untreated, live cell populations and then time-gated to separate data per well. FL-1 MCI values for the samples were analyzed per plate. Those samples which reported MCI values≥2 standard deviations above the plate mean negative control values were considered “hit” compounds.
To validate the identified samples and decrease the number of potential false-positive compounds, the hit compounds were assayed in a high-throughput dose response assay. This assay set up 384-well plates with the same volumes of F-cAMP cells, cRPMI, and DMSO/compounds as in the HTS, with the plate formats containing 10-well dose responses for each hit compound, at final concentrations ranging 30 μM to 4 nM. These plates were also foil-sealed, and incubated inverted overnight. Post-incubation, the dose response plates were analyzed by high throughput flow cytometry, as above. […]

In a further assay the test system is MHH Call 3 cells. Nature of the assay: Cross-cell line test for cAMP efflux (F-cAMP). The format is cell-based, human. The note with it: MHH Call 3, 37° C., 100 μM MK-571, overnight. As for the experimental part:
(§1) To study the differences in cAMP-removal, cells were loaded with a fluorescent cAMP-analog, and incubated under different conditions: low temperature (4° C.) used to estimate the passive probe “leakage”, and physiological temperature (37° C.) used to assess active removal of the probe.
(§2) Briefly, 15 million cells were loaded with F-cAMP via the osmotic process detailed above. Small volumes of cells were analyzed by flow cytometry post-staining to determine baseline fluorescence values based on MFI. […] The remaining cells were split in half, and one group was treated with a final concentration of 100 μM MK-571, while the other received DMSO-only at an equal volume. These two groups of cells were incubated ˜24 hr according to standard tissue culture conditions (37° C., 5% CO2/95% air). After incubation, cells were analyzed with flow cytometry for FL-1 MFI.
(§3) Because cells loaded with F-cAMP were washed, the resulting concentration gradient could have caused a “passive leak” of the probe. All 6 cell lines appeared to efflux F-cAMP, although to different extents (FIG. 7A a). After incubation at 4° C., the cells lost 20-60% of their fluorescence from the initial F-cAMP loading.

The subject of another assay is Reh cells. Nature of the assay: Cross-cell line test for cAMP efflux (F-cAMP). The format is cell-based, human. The note with it: 37° C., 100 μM MK-571, overnight. As to the method:
as §1, §2, §3

Another assay concerns RS4; 11 cells. Nature of the assay: Cross-cell line test for cAMP efflux (F-cAMP). The format is cell-based, human. The note with it: 11, 37° C., 100 μM MK-571, overnight. As for the experimental part: as §1, §2, §3
The subject of the next assay is Nalm 6 cells. Nature of the assay: Cross-cell line test for cAMP efflux (F-cAMP). To be noted: Nalm 6, 37° C., 100 μM MK-571, overnight. The format is cell-based, human. As for the experimental part: as §1, §2, §3
In a further assay the test system is Sup B15 cells. Kind of assay: Cross-cell line test for cAMP efflux (F-cAMP). The format is cell-based, human. To be noted: Sup B15, 37° C., 100 μM MK-571, overnight. As for the experimental part:
as §1, §2, §3

For a further assay, the system named is 697 cells. Nature of the assay: Cross-cell line test for cAMP efflux (F-cAMP). The note with it: 697, 37° C., 100 μM MK-571, overnight. The format is cell-based, human. As to the method: as §1, §2, §3
Assay [5] deals with U937 cells. Nature of the assay: CellTrace CFSE cell proliferation assay. The note with it: 3 μM, 48 hr.
[6] abbreviates: U-937, U937 cells, overnight incubation, dose responses 300 nM to 30 μM, read-out: Calculated EC50 values from Annexin V, 7-AAD double positive events.
The mark [7] stands for this setting: U-937, read-out: Calculated EC50 values from Annexin V, 7-AAD double positive events.

In the case of `CO[C@H]1O[C@@H]2O[C@@]3(C)CC[C@H]4[C@H](C)CC[C@@H]([C@H]1C)[C@@]24OO3` [Artemether, artemether], the EC50 (usually the concentration at which the effect is half-maximal) in the assay with U937 cells [1] (setting [6]) was 106 µM.

As to `C[C@@H]1CC[C@H]2[C@@H](C)C(=O)O[C@@H]3O[C@@]4(C)CC[C@@H]1[C@]32OO4` [Artemisinin, artemisinin], in the assay on U937 cells [1] (setting [6]), the EC50 is 249 µM.

On to `C[C@H]1[C@H](OC(=O)CCC(=O)O)O[C@@H]2O[C@@]3(C)CC[C@H]4[C@H](C)CC[C@@H]1[C@@]24OO3` [Artesunate, artesunate], for which the “Effect on cell cycle (PI staining)” value with U937 cells [2] was “increased percentages of cells in G1 or apoptosis in a dose-dependent manner”. The EC50 with U937 cells [1] (setting [6]) is 99.1 µM.

Turning to `Oc1c(I)cc(Cl)c2cccnc12` [Clioquinol, clioquinol], in the assay with U937 cells [1] (setting [6]), the EC50 was 76.6 µM.

Consider `C[C@H]1COC2=C1C(=O)C(=O)c1c2ccc2c1CCCC2(C)C` [Cryptotanshinone, cryptotanshinone], for which the EC50 is approximately 12 µM in assay [3] (Homo sapiens, PBMC, read-out: EC50 for decreased PBMC viability) and 53.5 µM with U937 cells [1] (setting [7]).

For `C[C@H]1[C@@H](O)O[C@@H]2O[C@@]3(C)CC[C@H]4[C@H](C)CC[C@@H]1[C@@]24OO3` [Dihydroartemisinin, dihydroartemisinin], the 50% effective concentration (EC50) in the assay with U937 cells [1] (setting [6]) is 55.7 µM.

Consider `CC1=NCCc2c1[nH]c1cc(O)ccc21` [Harmalol, harmalol], for which, in the assay with U937 cells [1] (setting [6]), the EC50 is 283 µM.

Take `CN(C)C(=O)CCSC(SCCC(=O)O)c1cccc(/C=C/c2ccc3ccc(Cl)cc3n2)c1` (stereo not drawn) [MK-571]: the EC50 in the assay with U937 cells [4] (Homo sapiens, U-937, read-out: EC50 for inhibition of cAMP efflux calculated in assay development, U937 cells loaded with F-cAMP, overnight) was 31 µM. Besides, in the assay with U937 cells [4] (U937 cells loaded with F-cAMP, overnight), the “Effect on cAMP efflux” value is on record as “down-modulated cAMP efflux in a dose-dependent manner”. In addition, the “F-cAMP efflux in the presence of MK-571” value in the assay with MHH Call 3 cells and in the assay on Sup B15 cells was “blocked completely” in each case. The “F-cAMP probe removed in the presence of MK-571” value is listed as 30-40% with Reh cells, 30-40% with RS4; 11 cells, 60-70% in the assay with Nalm 6 cells and 60-70% in the assay on 697 cells.

With `O=C1C=C2C(=CCOC2O)O1` (stereo not drawn) [Patulin, patulin], the EC50 with U937 cells [1] (setting [7]) was 3.29 µM. In the assay with U937 cells [5], the “Effect on cell division (CFSE fluorescence)” value is on record as “arrest of cell division within 48 hr”.

`[O-][n+]1ccccc1[S-].[O-][n+]1ccccc1[S-].[Zn+2]` [Pyrithione zinc, pyrithione zinc]: the “Selectivity: concentrations required by leukemic cells versus PBMCs (calculated EC50 values)” value in assay [3] (viability EC50, leukemic cell lines vs PBMCs) is “exception”.

As for `O=C1c2ccc(O)c(O)c2C(=O)c2c(O)ccc(O)c21` [Quinalizarin, quinalizarin], the EC50 in the assay with U937 cells [1] (setting [6]) was 172 µM.

Consider `O=C(O)Cc1ccccc1Nc1c(Cl)cccc1Cl` [diclofenac], for which the “Hit status in preliminary screen for cAMP efflux inhibitors” value (from here on “Hit status … for cAMP efflux inhibitors”) with U937 cells [4] is reported as “did not come out as hits”.

In the case of `CC1=C(CC(=O)O)c2cc(F)ccc2/C1=C\c1ccc([S+](C)[O-])cc1` (stereo not drawn) [sulindac], the “Hit status … for cAMP efflux inhibitors” value in the assay with U937 cells [4] was “did not come out as hits”.

As for `CC[C@@]1(O)C(=O)OCc2c1cc1n(c2=O)Cc2cc3c(CN(C)C)c(O)ccc3nc2-1` [topotecan], the “Hit status … for cAMP efflux inhibitors” value with U937 cells [4] is given as “did not come out as hits”.
